Results taken from paper PMC5218480 (PLoS ONE, 2017).

System: MV-4-11 cells
Experiment: Gene expression microarray analysis (Affymetrix PrimeView) and GSEA
Format: cell-based, human
Set-up: RFU PODN (11730768_x_at) / Fold change /veh PODN (11730768_x_at) / RFU LINC00158 (11744669_a_at) / Fold change /veh LINC00158 (11744669_a_at) / RFU DUSP10 (11751237_a_at) / Fold change /veh DUSP10 (11751237_a_at) / RFU ID3 (11757404_x_at) / Fold change /veh ID3 (11757404_x_at) / RFU PLEKHG5 (11737974_s_at) / Fold change /veh PLEKHG5 (11737974_s_at) / RFU LRRC4B (11730491_at) / Fold change /veh LRRC4B (11730491_at) / RFU GIMAP4 (11747438_a_at) / Fold change /veh GIMAP4 (11747438_a_at) / RFU KRT8 (11758183_x_at) / Fold change /veh KRT8 (11758183_x_at) / RFU CNN1 (11734310_a_at) / Fold change /veh CNN1 (11734310_a_at) / RFU VPS37D (11726825_at) / Fold change /veh VPS37D (11726825_at) / RFU C10orf10 (11716522_x_at) / Fold change /veh C10orf10 (11716522_x_at) / RFU KIR2DL2 /// KIR2DL4 /// KIR2DL5A /// KIR2DL5B /// KIR2DS1 /// KIR2DS2 /// KIR2DS3 /// KIR2DS4 /// KIR3DL3 /// KIR3DL3 /// KIR3DS1 (11738374_at) / Fold change /veh KIR2DL2 /// KIR2DL4 /// KIR2DL5A /// KIR2DL5B /// KIR2DS1 /// KIR2DS2 /// KIR2DS3 /// KIR2DS4 /// KIR3DL3 /// KIR3DL3 /// KIR3DS1 (11738374_at) / RFU C1QL1 (11718748_at) / Fold change /veh C1QL1 (11718748_at) / RFU TMPRSS4 (11747572_a_at) / Fold change /veh TMPRSS4 (11747572_a_at) / RFU HAMP (11756126_x_at) / Fold change /veh HAMP (11756126_x_at) / RFU RNFT2 (11725882_a_at) / Fold change /veh RNFT2 (11725882_a_at) / RFU NR4A2 (11747474_a_at) / Fold change /veh NR4A2 (11747474_a_at) / RFU ABCC12 (11746883_a_at) / Fold change /veh ABCC12 (11746883_a_at) / RFU TMEM136 (11760407_x_at) / Fold change /veh TMEM136 (11760407_x_at) / RFU CLDN22 /// WWC2 (11732394_at) / Fold change /veh CLDN22 /// WWC2 (11732394_at) / RFU HLA-DPB1 (11760878_x_at) / Fold change /veh HLA-DPB1 (11760878_x_at) / RFU SPINT1 (11716480_a_at) / Fold change /veh SPINT1 (11716480_a_at) / RFU GAP43 (11754022_s_at) / Fold change /veh GAP43 (11754022_s_at) / RFU A4GNT (11735810_at) / Fold change /veh A4GNT (11735810_at) / RFU PRB3 (11715151_x_at) / Fold change /veh PRB3 (11715151_x_at) / RFU TUBB4B (11761932_at) / Fold change /veh TUBB4B (11761932_at) / RFU CAPN14 (11732068_a_at) / Fold change /veh CAPN14 (11732068_a_at) / RFU TMCC2 (11721928_a_at) / Fold change /veh TMCC2 (11721928_a_at) / RFU IRGQ (11745062_a_at) / Fold change /veh IRGQ (11745062_a_at) / RFU FAM174B (11720279_a_at) / Fold change /veh FAM174B (11720279_a_at) / RFU TMPRSS4 (11748680_a_at) / Fold change /veh TMPRSS4 (11748680_a_at) / RFU FAM212B (11763350_a_at) / Fold change /veh FAM212B (11763350_a_at) / RFU PLEKHG5 (11743358_a_at) / Fold change /veh PLEKHG5 (11743358_a_at) / RFU ZSCAN30 (11745921_a_at) / Fold change /veh ZSCAN30 (11745921_a_at) / RFU CMKLR1 (11741424_a_at) / Fold change /veh CMKLR1 (11741424_a_at) / RFU LOC101060620 /// MAPK8IP1 (11723275_at) / Fold change /veh LOC101060620 /// MAPK8IP1 (11723275_at) / RFU SPTSSB (11747773_x_at) / Fold change /veh SPTSSB (11747773_x_at) / RFU PRSS12 (11739890_at) / Fold change /veh PRSS12 (11739890_at) / RFU BIN1 (11741810_x_at) / Fold change /veh BIN1 (11741810_x_at) / RFU WNT11 (11732464_a_at) / Fold change /veh WNT11 (11732464_a_at) / RFU C10orf10 (11716521_a_at) / Fold change /veh C10orf10 (11716521_a_at) / RFU C5orf56 (11738089_at) / Fold change /veh C5orf56 (11738089_at) / RFU CYB561 (11721691_x_at) / Fold change /veh CYB561 (11721691_x_at) / RFU ANKRD19P (11752326_a_at) / Fold change /veh ANKRD19P (11752326_a_at) / RFU OR2T12 /// OR2T33 /// OR2T8 (11738714_s_at) / Fold change /veh OR2T12 /// OR2T33 /// OR2T8 (11738714_s_at) / RFU VCAN (11748164_a_at) / Fold change /veh VCAN (11748164_a_at) / RFU JSRP1 (11732532_at) / Fold change /veh JSRP1 (11732532_at) / RFU KRTAP10-11 (11738290_x_at) / Fold change /veh KRTAP10-11 (11738290_x_at) / RFU MYO3A (11730013_a_at) / Fold change /veh MYO3A (11730013_a_at) / RFU EBF3 (11725865_a_at) / Fold change /veh EBF3 (11725865_a_at) / RFU CAMK2N1 (11719241_x_at) / Fold change /veh CAMK2N1 (11719241_x_at) / RFU C5orf56 (11738088_a_at) / Fold change /veh C5orf56 (11738088_a_at) / RFU OLFML3 (11715873_a_at) / Fold change /veh OLFML3 (11715873_a_at) / RFU LOC100653217 /// NTM (11731650_a_at) / Fold change /veh LOC100653217 /// NTM (11731650_a_at) / RFU MAPK11 (11762145_a_at) / Fold change /veh MAPK11 (11762145_a_at) / RFU FIZ1 (11724087_x_at) / Fold change /veh FIZ1 (11724087_x_at) / RFU OASL (11726364_x_at) / Fold change /veh OASL (11726364_x_at) / RFU SOX15 (11748057_x_at) / Fold change /veh SOX15 (11748057_x_at) / RFU CD79A (11719716_a_at) / Fold change /veh CD79A (11719716_a_at) / RFU HIST1H1D (11736915_at) / Fold change /veh HIST1H1D (11736915_at) / RFU CASKIN2 (11723855_a_at) / Fold change /veh CASKIN2 (11723855_a_at) / RFU LOC730098 (11760151_x_at) / Fold change /veh LOC730098 (11760151_x_at) / RFU OR4N2 (11742367_at) / Fold change /veh OR4N2 (11742367_at) / RFU PRRT2 (11749266_a_at) / Fold change /veh PRRT2 (11749266_a_at) / RFU SNX32 (11753110_a_at) / Fold change /veh SNX32 (11753110_a_at) / RFU CDHR5 (11726645_a_at) / Fold change /veh CDHR5 (11726645_a_at) / RFU RCAN1 (11760418_a_at) / Fold change /veh RCAN1 (11760418_a_at) / RFU FAM167A (11723789_a_at) / Fold change /veh FAM167A (11723789_a_at) / RFU FAM26E (11764081_at) / Fold change /veh FAM26E (11764081_at) / RFU ISYNA1 (11749810_s_at) / Fold change /veh ISYNA1 (11749810_s_at) / RFU ACY1 (11761880_at) / Fold change /veh ACY1 (11761880_at) / RFU 11764098_at / Fold change /veh 11764098_at / RFU SAMD14 (11745864_x_at) / Fold change /veh SAMD14 (11745864_x_at) / RFU NPB (11741838_a_at) / Fold change /veh NPB (11741838_a_at) / RFU TMPRSS6 (11731388_a_at) / Fold change /veh TMPRSS6 (11731388_a_at) / RFU KRTAP10-2 (11738614_at) / Fold change /veh KRTAP10-2 (11738614_at) / RFU ARHGAP8 /// PRR5-ARHGAP8 (11727945_x_at) / Fold change /veh ARHGAP8 /// PRR5-ARHGAP8 (11727945_x_at) / RFU KRTAP5-7 /// NADSYN1 (11734609_at) / Fold change /veh KRTAP5-7 /// NADSYN1 (11734609_at) / RFU RASL12 (11751679_a_at) / Fold change /veh RASL12 (11751679_a_at) / RFU CDKN2B (11736163_a_at) / Fold change /veh CDKN2B (11736163_a_at) / RFU PRF1 (11729649_at) / Fold change /veh PRF1 (11729649_at) / RFU, ZNF638 /// ZNF638-IT1 / Fold change vs veh, ZNF638 /// ZNF638-IT1 / RFU, PANK3 / Fold change vs veh, PANK3 / RFU, SH3YL1 / Fold change vs veh, SH3YL1 / RFU, ZEB2 / Fold change vs veh, ZEB2 / RFU, NRIP1 / Fold change vs veh, NRIP1 / RFU, PTTG1IP / Fold change vs veh, PTTG1IP / RFU, CAPN2 / Fold change vs veh, CAPN2 / RFU, MED14 / Fold change vs veh, MED14 / RFU, SNORA58 / Fold change vs veh, SNORA58 / RFU, C1orf63 / Fold change vs veh, C1orf63 / RFU, LRRFIP1 / Fold change vs veh, LRRFIP1 / RFU, NDUFAF7 / Fold change vs veh, NDUFAF7 / RFU, SLC12A2 / Fold change vs veh, SLC12A2 / RFU, IBTK / Fold change vs veh, IBTK / RFU, ESF1 / Fold change vs veh, ESF1 / Fold change vs veh, TMEM50B / RFU, TAOK1 / Fold change vs veh, TAOK1 / RFU, ACBD3 / Fold change vs veh, ACBD3 / RFU, TMA16 / Fold change vs veh, TMA16 / RFU, RWDD3 / Fold change vs veh, RWDD3 / RFU, BCAT1 / Fold change vs veh, BCAT1 / RFU, EDEM3 / Fold change vs veh, EDEM3 / RFU, TMEM33 / Fold change vs veh, TMEM33 / RFU, WDR75 / Fold change vs veh, WDR75 / RFU, AHCTF1 / Fold change vs veh, AHCTF1 / RFU, TFRC / Fold change vs veh, TFRC / RFU, ZDHHC17 / Fold change vs veh, ZDHHC17 / RFU, NOM1 / Fold change vs veh, NOM1 / RFU, ARL8B / Fold change vs veh, ARL8B / RFU, ZBTB11 / Fold change vs veh, ZBTB11 / RFU, TAMM41 / Fold change vs veh, TAMM41 / RFU, KIAA1704 /// LOC100996395 / Fold change vs veh, KIAA1704 /// LOC100996395 / RFU, ING1 / Fold change vs veh, ING1 / RFU, TRMT61B / Fold change vs veh, TRMT61B / RFU, FUBP3 / Fold change vs veh, FUBP3 / RFU, TP53 / Fold change vs veh, TP53 / RFU, TNKS2 / Fold change vs veh, TNKS2 / RFU, ZFP14 / Fold change vs veh, ZFP14 / RFU, ACTR2 / Fold change vs veh, ACTR2 / RFU, PPP3R1 / Fold change vs veh, PPP3R1 / RFU, PIK3R1 / Fold change vs veh, PIK3R1 / RFU, HNRNPA1 / Fold change vs veh, HNRNPA1 / RFU, RNF170 / Fold change vs veh, RNF170 / RFU, ZNF28 / Fold change vs veh, ZNF28 / RFU, RNGTT / Fold change vs veh, RNGTT / RFU, OGT / Fold change vs veh, OGT / RFU, BRD1 / Fold change vs veh, BRD1 / RFU, MARS / Fold change vs veh, MARS / RFU, ZNF655 / Fold change vs veh, ZNF655 / RFU, FAHD1 / Fold change vs veh, FAHD1 / RFU, BDP1 / Fold change vs veh, BDP1 / RFU, LRRCC1 / Fold change vs veh, LRRCC1 / RFU, ARID1A / Fold change vs veh, ARID1A / RFU, ZNF146 / Fold change vs veh, ZNF146 / RFU, ZNF330 / Fold change vs veh, ZNF330 / RFU, GPN3 / Fold change vs veh, GPN3 / RFU, C9orf123 / Fold change vs veh, C9orf123 / RFU, N4BP2L2 / Fold change vs veh, N4BP2L2 / RFU, ARFIP1 / Fold change vs veh, ARFIP1 / RFU, FAM179B / Fold change vs veh, FAM179B / RFU, BCL10 / Fold change vs veh, BCL10 / RFU, UHRF1BP1L / Fold change vs veh, UHRF1BP1L / RFU, BET1 / Fold change vs veh, BET1 / RFU, CNOT2 / Fold change vs veh, CNOT2 / RFU, ZNF268 / Fold change vs veh, ZNF268 / Fold change vs veh, ZNF507 / RFU, DGCR2 / Fold change vs veh, DGCR2 / RFU, WDSUB1 / Fold change vs veh, WDSUB1 / Fold change vs veh, HSP90B1 /// MIR3652 / RFU, ADSS / Fold change vs veh, ADSS / RFU, GK / Fold change vs veh, GK / RFU, ZNF148 / Fold change vs veh, ZNF148 / RFU, TAF9 / Fold change vs veh, TAF9 / RFU, SLC1A5 / Fold change vs veh, SLC1A5 / RFU, SLMO2 / Fold change vs veh, SLMO2 / RFU, ABCC4 / Fold change vs veh, ABCC4 / RFU, LOC101060439 /// RAP1B / Fold change vs veh, LOC101060439 /// RAP1B / RFU, RFX7 / Fold change vs veh, RFX7 / RFU, GTPBP10 / Fold change vs veh, GTPBP10 / RFU, CNEP1R1 / Fold change vs veh, CNEP1R1 / RFU, BIVM-ERCC5 /// ERCC5 / Fold change vs veh, BIVM-ERCC5 /// ERCC5 / RFU, ILF3 / Fold change vs veh, ILF3 / RFU 11762660_at / Fold change /veh 11762660_at / RFU VCAN (11757783_s_at) / Fold change /veh VCAN (11757783_s_at) / RFU DDX43 (11728927_at) / Fold change /veh DDX43 (11728927_at) / RFU KRT8 (11758188_x_at) / Fold change /veh KRT8 (11758188_x_at) / RFU NKD1 (11759106_at) / Fold change /veh NKD1 (11759106_at) / RFU SRD5A1 (11742802_a_at) / Fold change /veh SRD5A1 (11742802_a_at) / RFU TPSAB1 /// TPSB2 (11721975_s_at) / Fold change /veh TPSAB1 /// TPSB2 (11721975_s_at) / RFU GSTM3 (11746129_a_at) / Fold change /veh GSTM3 (11746129_a_at) / RFU IL23R (11737362_x_at) / Fold change /veh IL23R (11737362_x_at) / RFU TMEM51 (11727254_a_at) / Fold change /veh TMEM51 (11727254_a_at) / RFU PIWIL2 (11732686_x_at) / Fold change /veh PIWIL2 (11732686_x_at) / RFU ORM1 (11744905_x_at) / Fold change /veh ORM1 (11744905_x_at) / RFU CCDC152 (11743942_at) / Fold change /veh CCDC152 (11743942_at) / RFU ECM1 (11717891_a_at) / Fold change /veh ECM1 (11717891_a_at) / RFU IL23R (11748794_a_at) / Fold change /veh IL23R (11748794_a_at) / RFU TNFAIP8L3 (11732012_x_at) / Fold change /veh TNFAIP8L3 (11732012_x_at) / RFU MBOAT4 (11741988_at) / Fold change /veh MBOAT4 (11741988_at) / RFU 11764193_at / Fold change /veh 11764193_at / RFU TMEM53 (11763286_at) / Fold change /veh TMEM53 (11763286_at) / RFU MAGEB2 (11727129_at) / Fold change /veh MAGEB2 (11727129_at) / RFU TMEM200A (11744735_a_at) / Fold change /veh TMEM200A (11744735_a_at) / RFU CCDC152 (11751479_a_at) / Fold change /veh CCDC152 (11751479_a_at) / RFU FAM211A (11726209_a_at) / Fold change /veh FAM211A (11726209_a_at) / RFU RGS16 (11746705_a_at) / Fold change /veh RGS16 (11746705_a_at) / RFU VCAN (11755009_s_at) / Fold change /veh VCAN (11755009_s_at) / RFU RHOB (11743442_s_at) / Fold change /veh RHOB (11743442_s_at) / RFU RGS16 (11720943_a_at) / Fold change /veh RGS16 (11720943_a_at) / RFU RGS16 (11720944_at) / Fold change /veh RGS16 (11720944_at) / RFU, VPS4B / Fold change vs veh, VPS4B / RFU, CREB1 / Fold change vs veh, CREB1 / RFU, DNAJC13 / Fold change vs veh, DNAJC13 / RFU, GNAQ / Fold change vs veh, GNAQ / RFU, CDK5R1 / Fold change vs veh, CDK5R1 / RFU, ZRANB3 / Fold change vs veh, ZRANB3 / RFU, CUL4A / Fold change vs veh, CUL4A / RFU, CCNY / Fold change vs veh, CCNY / RFU, UFL1 / Fold change vs veh, UFL1 / RFU, COG3 / Fold change vs veh, COG3 / RFU, DIAPH2 / Fold change vs veh, DIAPH2 / RFU, SKA2 / Fold change vs veh, SKA2 / RFU, AFF3 / Fold change vs veh, AFF3 / RFU, LMF1 / Fold change vs veh, LMF1 / RFU, IPO11 / Fold change vs veh, IPO11 / RFU, DFFB / Fold change vs veh, DFFB / RFU, FOXP1 / Fold change vs veh, FOXP1 / RFU, CARD8 / Fold change vs veh, CARD8 / RFU, STRN3 / Fold change vs veh, STRN3 / RFU, ADK / Fold change vs veh, ADK / RFU, RASSF2 / Fold change vs veh, RASSF2 / RFU, WIPF1 / Fold change vs veh, WIPF1 / RFU, LARP1B / Fold change vs veh, LARP1B / RFU, RASA1 / Fold change vs veh, RASA1 / RFU, RB1 / Fold change vs veh, RB1 / RFU, PPFIA1 / Fold change vs veh, PPFIA1 / RFU, MAT2A / Fold change vs veh, MAT2A / RFU, CCT5 / Fold change vs veh, CCT5 / RFU, WDR92 / Fold change vs veh, WDR92 / RFU, CUX1 / Fold change vs veh, CUX1 / RFU, TTC7A / Fold change vs veh, TTC7A / RFU, TMEM135 / Fold change vs veh, TMEM135 / RFU, DEPTOR / Fold change vs veh, DEPTOR / RFU, CPM / Fold change vs veh, CPM / RFU, DNAJB6 / Fold change vs veh, DNAJB6 / RFU, CACNA2D3 / Fold change vs veh, CACNA2D3 / RFU, DTX4 / Fold change vs veh, DTX4 / RFU, TFCP2 / Fold change vs veh, TFCP2 / RFU, GMCL1 /// GMCL1P1 / Fold change vs veh, GMCL1 /// GMCL1P1 / RFU, AEBP2 / Fold change vs veh, AEBP2 / RFU, SNHG1 /// SNORD22 /// SNORD25 /// SNORD26 /// SNORD27 /// SNORD28 /// SNORD29 /// SNORD31 / Fold change vs veh, SNHG1 /// SNORD22 /// SNORD25 /// SNORD26 /// SNORD27 /// SNORD28 /// SNORD29 /// SNORD31 / Fold change (Aza/veh), C12orf56 (ProbeSet 11735607_a_at) / Fold change (ACY-1035/veh), C12orf56 (ProbeSet 11735607_a_at) / Fold change (Aza/veh), FGFR1OP (ProbeSet 11751329_s_at) / Fold change (ACY-1035/veh), FGFR1OP (ProbeSet 11751329_s_at) / Fold change (Aza/veh), VPS36 (ProbeSet 11739960_a_at) / Fold change (ACY-1035/veh), VPS36 (ProbeSet 11739960_a_at) / RFU SYPL1 (11715823_x_at) / Fold change /veh SYPL1 (11715823_x_at) / RFU IGFBP7 (11715501_s_at) / Fold change /veh IGFBP7 (11715501_s_at) / RFU REEP3 (11722064_at) / Fold change /veh REEP3 (11722064_at) / RFU IGLL1 (11728026_x_at) / Fold change /veh IGLL1 (11728026_x_at): dose or concentration left out as unconfirmed
Details: MV-4-11 cells, 48 hours

## Nc1ncn([C@@H]2O[C@H](CO)[C@@H](O)[C@H]2O)c(=O)n1 [azacitidine]
  Fold change /veh LINC00158 (11744669_a_at): 1.04
